Data published in patent publication US6596759B2, “Medicament for treatment of irritable bowel syndrome” (Mitsubishi Chemical Corporation, priority 1997, dated 2003).
Entries after “also recorded” stand apart in the source; their conditions may differ. Marks after values point to notes of the source that are not given here.

Legend:
[1] = test system: defecation number induced by restraint stress in rats; assay: Increase of defecation number induced by restraint stress (animal model of irritable bowel syndrome); assay type: in vivo; settings: rat; for Suppressive action on stress-induced defecation at a high dose (in words): high dose (amitriptyline 100 mg/kg, diazepam 30 mg/kg); for Suppression of the increase of defecation number induced by the restraint (in words): over the doses of Table 3; for Effect on the defecation-suppressing action of the medicament of the present invention (combination of drugs): other drug given 1 hour, medicament 30 minutes before the restraint, FIG. 1
Protocol: Increase of defecation number induced by restraint stress has widely been used as a pathological model of irritable bowel syndrome (Miyata et al., J. Pharmacol. Exp. Ther., 261, pp.297-303, 1992). Therefore, pathological model animals of irritable bowel syndrome were prepared according to the method of Williams et al. (Williams et al., Gastroenterology, 94, pp.611-621, 1988) and used for evaluation of the effectiveness of the medicament of the present invention. The medicament of the present invention was administered to the rats, and after 1 hour, their forelegs were fixed on their trunks with adhesive tapes under ether anesthesia (load of restraint stress). One hour after the restraint, defecation number was counted and the number was compared with that of the control group. In the experiments using a combination of drugs, the medicament of the present invention was administered to the animals 30 minutes before the restraint, and the other drug was administered 1 hour before the restraint.

[2] = test system: patients with irritable bowel syndrome; settings: double-blind test; cited from earlier work
[3] = test system: animal model; settings: cited from earlier work
[4] = test system: defecation induced by forced swimming stress in rats; settings: rat; cited from earlier work

SMILES | Suppression rate of defecation number (%) ([1]; oral, 10 mg/kg) | Suppression rate of defecation number (%) ([1]; oral, 30 mg/kg) | Suppression rate of defecation number (%) ([1]; oral, 100 mg/kg) | Suppression of the increase of defecation number induced by the restraint (in words) [1] | further results
CN(C)CCC=C1c2ccccc2CCc2ccccc21 [Amitriptyline, amitriptyline] | 17 | 6% | 69* % | – | Suppressive action on stress-induced defecation at a high dose (in words) ([1]; oral): exhibited significant suppressive actions; Efficacy on stress-induced defecation at a lower dose (in words) ([1]; oral): no efficacy
O=C1[C@@H]2[C@H]3CC[C@H](C3)[C@@H]2C(=O)N1CCCCN1CCN(c2ncccn2)CC1 [Tandospirone, tandospirone] | – | 8% | 4% | failed to exhibit significant efficacy | Suppression rate of defecation number (%) ([1]; oral, 300 mg/kg): 44%; Therapeutic efficacy in irritable bowel syndrome compared with a placebo [2]: failed to give a significant difference
CCCN(CCC)C1CCc2cccc(O)c2C1 (stereo not shown) [8-OH-DPAT, 8-hydroxy-2-(di-n-propylamino)tetralin] | – | – | – | the defecation due to the stress was suppressed | Suppression rate of defecation number (%) ([1]; intraperitoneal, 0.03 mg/kg): 25%; Suppression rate of defecation number (%) ([1]; intraperitoneal, 0.1 mg/kg): 74* %; Suppression rate of defecation number (%) ([1]; intraperitoneal, 0.3 mg/kg): 97* %
COc1ccccc1N1CCN(CC(C(=O)NC(C)(C)C)c2ccccc2)CC1 (stereo not shown) [WAY100135, N-tert-butyl-3-(4-(2-methoxyphenyl)piperazin-1-yl)-2-phenyl-propanamide] | – | – | – | – | Effect on the defecation-suppressing action of the medicament of the present invention (combination of drugs) [1]: inhibited
c1ccc2c(c1)OC[C@H](CNCCCOc1ccc3c(c1)OCO3)O2 [Compound No. 1, 5-[3 [(2S)-(1,4-benzodioxan-2-ylmethyl)amino]propoxy]-1,3-benzo-dioxol] | – | – | – | dose-dependently suppressed | Suppression rate of defecation number (%) ([1]; oral, 0.3 mg/kg): 29%; Suppression rate of defecation number (%) ([1]; oral, 1 mg/kg): 45* %; Suppression rate of defecation number (%) ([1]; oral, 3 mg/kg): 81* %; Anxiolytic activity [3]: anxiolytic activity of the medicament of the present invention was observed
O=C1CC2(CCCC2)CC(=O)N1CCCCN1CCN(c2ncccn2)CC1 [Buspirone, buspirone] | 12 | 12% | 44% | failed to exhibit significant efficacy | Defecation suppressing activity, forced swimming stress [4]: exhibited significant defecation suppressing activity
CNCCC(Oc1ccc(C(F)(F)F)cc1)c1ccccc1 (stereo not shown) [Fluoxetin] | 24 | 15% | 26% | – | –
CN1C(=O)CN=C(c2ccccc2)c2cc(Cl)ccc21 [Diazepam, diazepam] | 36 | 77* % | – | – | Suppression rate of defecation number (%) ([1]; oral, 3 mg/kg): 26%; Suppressive action on stress-induced defecation at a high dose (in words) ([1]; oral): exhibited significant suppressive actions; Efficacy on stress-induced defecation at a lower dose (in words) ([1]; oral): no efficacy
c1cnc(N2CCNCC2)nc1 [1-PP, 1-(2-pyrimidinyl)piperazine] | – | – | – | – | Effect on the defecation-suppressing action of the medicament of the present invention (combination of drugs) [1]: inhibited; also recorded: antagonized
